Experimental data from US10918610B2, “Compounds and methods of promoting myelination” (Case Western Reserve University, priority 2017, dated 2021).

System: human cortical spheroids
Assay: MYRF+ oligodendrocytes in human cortical spheroids
Assay type: cell-based
Details: 30 nM from days 61-71, assayed on day 94, versus untreated
Experimental: Human cortical spheroids were generated as described in Madhavan et al, (Nature Methods, 15:700-706, 2018). In brief, spheroids were left untreated, or treated with Cis-N-cyclohexyl-N-ethyl-3-(3-chloro-4-cyclohexylphenyl)prop-2-enylamine (30 nM) from days 61-71 and assayed […] on day 94 for MyRF+ oligodendrocytes (Rabbit anti-MyRF antibody was generously provided by M. Wegner and used at 1:1000).
For patterning of neurocortical spheroids, pluripotent stem cell colonies cultured on vitronectin (Gibco; A14700) were lifted with dispase (Gibco; 17105-041) at 37° C. for 10 min. Intact colonies were transferred to individual low-adherence V-bottom 96-well plates (S-Bio Prime; MS-9096VZ) in 200 μl of spheroid starter media with 10 μM ROCK inhibitor Y-27632 (Calbiochem; 688001), 10 μM dorsopmorphin (Sigma; P5499), and 10 μM SB-431542 (Sigma; S4317). […]
Spheroids for immunohistochemistry were initially fixed with 4% ice-cold paraformaldehyde for 45 min, washed three times in PBS, and equilibrated with 30% sucrose overnight. […] Two fields from the top and bottom of the spheroid and two fields from the edges of the central region of the spheroids were quantified. […]

Structure (SMILES): CCN(C/C=C\c1ccc(C2CCCCC2)c(Cl)c1)C1CCCCC1 [Cis-N-cyclohexyl-N-ethyl-3-(3-chloro-4-cyclohexylphenyl)prop-2-enylamine]
- MYRF+ oligodendrocytes in human cortical spheroids: selectively increase MYRF+ oligodendrocytes
